{
  "source": "paper PMC11864979",
  "about": "“First-in-class ultralong-target-residence-time p38α inhibitors as a mitosis-targeted therapy for colorectal cancer” (Nature Cancer, 2025)",
  "test_in_all_cases": "selectivity profiling in a panel of 340 wild-type kinases (Reaction Biology Europe)",
  "format_in_all_cases": "binding",
  "key": {"340 wild-type kinases [1]": {"target": "T1, 340 wild-type kinases (Homo sapiens, UniProt P37023)", "T1 construct": "purchased Reaction Biology Europe", "T1 sequence (P37023 22-503)": "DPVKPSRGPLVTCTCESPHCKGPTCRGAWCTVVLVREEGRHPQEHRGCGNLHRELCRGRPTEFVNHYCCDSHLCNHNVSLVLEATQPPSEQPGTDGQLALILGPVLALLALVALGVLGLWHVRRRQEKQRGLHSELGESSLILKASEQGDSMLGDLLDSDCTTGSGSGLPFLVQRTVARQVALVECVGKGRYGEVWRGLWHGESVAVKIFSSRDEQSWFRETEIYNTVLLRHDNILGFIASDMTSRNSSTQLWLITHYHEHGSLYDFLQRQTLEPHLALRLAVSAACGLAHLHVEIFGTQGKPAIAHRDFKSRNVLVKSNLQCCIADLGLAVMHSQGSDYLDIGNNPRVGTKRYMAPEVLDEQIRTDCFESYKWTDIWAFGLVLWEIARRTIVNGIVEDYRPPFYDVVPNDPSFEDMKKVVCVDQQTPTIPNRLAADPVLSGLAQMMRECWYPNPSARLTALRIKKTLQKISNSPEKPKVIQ"}, "340 wild-type kinases [2]": {"target": "T2, 340 wild-type kinases (Homo sapiens, UniProt Q9BYT3)", "T2 construct": "purchased Reaction Biology Europe", "T2 sequence (Q9BYT3 whole entry)": "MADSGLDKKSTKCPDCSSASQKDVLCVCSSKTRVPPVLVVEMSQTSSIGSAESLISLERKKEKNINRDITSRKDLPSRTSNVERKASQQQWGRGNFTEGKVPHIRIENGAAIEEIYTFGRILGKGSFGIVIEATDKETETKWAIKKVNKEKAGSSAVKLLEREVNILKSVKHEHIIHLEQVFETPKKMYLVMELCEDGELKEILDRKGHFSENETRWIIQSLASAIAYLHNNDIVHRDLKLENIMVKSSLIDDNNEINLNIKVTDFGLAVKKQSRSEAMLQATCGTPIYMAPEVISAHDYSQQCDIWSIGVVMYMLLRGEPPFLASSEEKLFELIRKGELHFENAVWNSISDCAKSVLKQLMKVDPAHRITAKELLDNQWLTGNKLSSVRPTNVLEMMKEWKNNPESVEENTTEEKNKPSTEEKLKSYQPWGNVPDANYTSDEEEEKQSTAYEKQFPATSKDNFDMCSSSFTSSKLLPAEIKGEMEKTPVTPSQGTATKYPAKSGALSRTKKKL"}, "340 wild-type kinases [3]": {"target": "T3, 340 wild-type kinases (Homo sapiens, UniProt P27037)", "T3 construct": "purchased Reaction Biology Europe", "T3 sequence (P27037 20-513)": "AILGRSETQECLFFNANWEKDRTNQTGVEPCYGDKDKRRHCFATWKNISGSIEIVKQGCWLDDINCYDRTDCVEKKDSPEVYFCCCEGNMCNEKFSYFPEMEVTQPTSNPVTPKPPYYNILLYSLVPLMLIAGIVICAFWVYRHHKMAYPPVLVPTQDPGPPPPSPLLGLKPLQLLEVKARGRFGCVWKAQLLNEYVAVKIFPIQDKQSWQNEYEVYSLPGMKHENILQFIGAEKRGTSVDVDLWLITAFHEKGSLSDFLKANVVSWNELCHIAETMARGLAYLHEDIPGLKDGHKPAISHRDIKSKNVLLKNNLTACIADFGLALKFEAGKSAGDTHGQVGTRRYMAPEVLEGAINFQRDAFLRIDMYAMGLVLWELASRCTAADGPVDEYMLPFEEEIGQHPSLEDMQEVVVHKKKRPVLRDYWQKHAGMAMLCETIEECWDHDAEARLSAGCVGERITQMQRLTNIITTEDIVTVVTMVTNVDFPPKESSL"}, "340 wild-type kinases [4]": {"target": "T4, 340 wild-type kinases (Homo sapiens, UniProt Q96GX5)", "T4 construct": "purchased Reaction Biology Europe", "T4 sequence (Q96GX5 1-879)": "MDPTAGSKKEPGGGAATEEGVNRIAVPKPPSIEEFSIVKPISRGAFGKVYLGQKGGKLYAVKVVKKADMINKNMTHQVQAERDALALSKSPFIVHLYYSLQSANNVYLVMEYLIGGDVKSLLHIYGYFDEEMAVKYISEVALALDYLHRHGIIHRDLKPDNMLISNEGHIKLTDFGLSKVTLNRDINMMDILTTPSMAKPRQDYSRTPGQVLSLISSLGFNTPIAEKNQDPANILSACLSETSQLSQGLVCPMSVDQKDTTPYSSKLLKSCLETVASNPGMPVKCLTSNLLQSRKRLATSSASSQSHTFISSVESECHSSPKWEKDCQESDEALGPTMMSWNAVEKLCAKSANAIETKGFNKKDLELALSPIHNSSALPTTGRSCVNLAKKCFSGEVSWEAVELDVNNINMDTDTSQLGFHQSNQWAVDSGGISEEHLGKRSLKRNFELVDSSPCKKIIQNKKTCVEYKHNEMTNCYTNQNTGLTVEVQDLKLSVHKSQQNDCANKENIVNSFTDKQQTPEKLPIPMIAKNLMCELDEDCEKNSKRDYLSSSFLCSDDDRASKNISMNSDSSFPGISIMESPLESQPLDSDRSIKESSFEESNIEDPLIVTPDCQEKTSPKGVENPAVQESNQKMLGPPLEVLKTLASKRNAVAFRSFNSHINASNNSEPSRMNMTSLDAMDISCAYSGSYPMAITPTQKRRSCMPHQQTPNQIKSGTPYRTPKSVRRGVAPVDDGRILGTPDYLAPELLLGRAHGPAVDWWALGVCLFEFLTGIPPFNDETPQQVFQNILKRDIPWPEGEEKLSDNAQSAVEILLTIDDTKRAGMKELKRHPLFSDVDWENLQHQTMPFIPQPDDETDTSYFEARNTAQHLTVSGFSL"}, "340 wild-type kinases [5]": {"target": "T5, 340 wild-type kinases (Homo sapiens, UniProt Q99759)", "T5 construct": "purchased Reaction Biology Europe", "T5 sequence (Q99759 1-626)": "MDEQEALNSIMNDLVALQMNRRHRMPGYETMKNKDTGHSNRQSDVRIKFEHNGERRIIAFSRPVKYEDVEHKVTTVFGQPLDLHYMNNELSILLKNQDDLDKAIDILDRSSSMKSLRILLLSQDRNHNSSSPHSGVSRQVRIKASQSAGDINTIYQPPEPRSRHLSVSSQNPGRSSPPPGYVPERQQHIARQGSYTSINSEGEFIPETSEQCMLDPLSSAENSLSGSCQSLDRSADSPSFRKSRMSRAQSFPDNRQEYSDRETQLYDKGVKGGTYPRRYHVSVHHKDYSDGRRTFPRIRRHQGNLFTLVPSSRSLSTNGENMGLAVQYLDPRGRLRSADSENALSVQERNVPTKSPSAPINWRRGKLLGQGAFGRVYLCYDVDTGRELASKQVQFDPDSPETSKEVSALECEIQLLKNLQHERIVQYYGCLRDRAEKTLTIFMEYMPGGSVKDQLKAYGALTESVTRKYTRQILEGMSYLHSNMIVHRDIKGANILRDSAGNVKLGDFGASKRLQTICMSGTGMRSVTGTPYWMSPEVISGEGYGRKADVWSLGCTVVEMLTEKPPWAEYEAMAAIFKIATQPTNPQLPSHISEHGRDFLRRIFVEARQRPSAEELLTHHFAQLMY"}, "340 wild-type kinases [6]": {"target": "T6, 340 wild-type kinases (Homo sapiens, UniProt P57059)", "T6 construct": "purchased Reaction Biology Europe", "T6 sequence (P57059 whole entry)": "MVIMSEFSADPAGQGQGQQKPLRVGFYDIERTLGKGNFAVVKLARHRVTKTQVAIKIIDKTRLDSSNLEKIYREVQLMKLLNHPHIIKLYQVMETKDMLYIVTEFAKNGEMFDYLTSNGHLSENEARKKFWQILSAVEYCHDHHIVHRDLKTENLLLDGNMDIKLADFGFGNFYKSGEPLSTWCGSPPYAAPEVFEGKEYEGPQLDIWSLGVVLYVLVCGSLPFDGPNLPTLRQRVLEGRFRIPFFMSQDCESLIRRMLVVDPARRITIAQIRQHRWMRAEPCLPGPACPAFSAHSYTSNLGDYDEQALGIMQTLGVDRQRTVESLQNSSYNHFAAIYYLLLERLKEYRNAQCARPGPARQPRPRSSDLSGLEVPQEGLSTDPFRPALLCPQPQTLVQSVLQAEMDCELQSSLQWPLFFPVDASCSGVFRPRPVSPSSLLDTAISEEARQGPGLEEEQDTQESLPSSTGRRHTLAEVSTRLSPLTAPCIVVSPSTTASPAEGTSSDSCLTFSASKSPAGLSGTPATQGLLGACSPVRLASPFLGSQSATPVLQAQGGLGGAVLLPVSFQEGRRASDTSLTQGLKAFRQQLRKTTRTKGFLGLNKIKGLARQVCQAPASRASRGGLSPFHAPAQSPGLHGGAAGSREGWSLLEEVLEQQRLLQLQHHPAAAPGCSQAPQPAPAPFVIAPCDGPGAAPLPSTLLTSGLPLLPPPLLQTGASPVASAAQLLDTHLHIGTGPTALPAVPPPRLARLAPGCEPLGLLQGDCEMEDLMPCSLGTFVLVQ"}, "340 wild-type kinases [7]": {"target": "T7, 340 wild-type kinases (Homo sapiens, UniProt Q9BXA7)", "T7 construct": "purchased Reaction Biology Europe", "T7 sequence (Q9BXA7 1-367)": "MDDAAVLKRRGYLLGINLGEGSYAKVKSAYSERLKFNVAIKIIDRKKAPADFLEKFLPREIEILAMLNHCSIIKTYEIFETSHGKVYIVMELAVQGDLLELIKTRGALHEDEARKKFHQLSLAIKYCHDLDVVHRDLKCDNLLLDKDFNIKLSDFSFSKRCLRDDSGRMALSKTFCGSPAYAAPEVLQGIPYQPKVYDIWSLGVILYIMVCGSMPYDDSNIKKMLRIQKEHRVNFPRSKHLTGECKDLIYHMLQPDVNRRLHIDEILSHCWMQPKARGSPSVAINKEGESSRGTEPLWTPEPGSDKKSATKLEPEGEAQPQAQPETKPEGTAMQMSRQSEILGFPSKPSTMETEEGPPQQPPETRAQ"}, "340 wild-type kinases [8]": {"target": "T8, 340 wild-type kinases (Homo sapiens, UniProt P11362)", "T8 construct": "purchased Reaction Biology Europe", "T8 sequence (P11362 22-822)": "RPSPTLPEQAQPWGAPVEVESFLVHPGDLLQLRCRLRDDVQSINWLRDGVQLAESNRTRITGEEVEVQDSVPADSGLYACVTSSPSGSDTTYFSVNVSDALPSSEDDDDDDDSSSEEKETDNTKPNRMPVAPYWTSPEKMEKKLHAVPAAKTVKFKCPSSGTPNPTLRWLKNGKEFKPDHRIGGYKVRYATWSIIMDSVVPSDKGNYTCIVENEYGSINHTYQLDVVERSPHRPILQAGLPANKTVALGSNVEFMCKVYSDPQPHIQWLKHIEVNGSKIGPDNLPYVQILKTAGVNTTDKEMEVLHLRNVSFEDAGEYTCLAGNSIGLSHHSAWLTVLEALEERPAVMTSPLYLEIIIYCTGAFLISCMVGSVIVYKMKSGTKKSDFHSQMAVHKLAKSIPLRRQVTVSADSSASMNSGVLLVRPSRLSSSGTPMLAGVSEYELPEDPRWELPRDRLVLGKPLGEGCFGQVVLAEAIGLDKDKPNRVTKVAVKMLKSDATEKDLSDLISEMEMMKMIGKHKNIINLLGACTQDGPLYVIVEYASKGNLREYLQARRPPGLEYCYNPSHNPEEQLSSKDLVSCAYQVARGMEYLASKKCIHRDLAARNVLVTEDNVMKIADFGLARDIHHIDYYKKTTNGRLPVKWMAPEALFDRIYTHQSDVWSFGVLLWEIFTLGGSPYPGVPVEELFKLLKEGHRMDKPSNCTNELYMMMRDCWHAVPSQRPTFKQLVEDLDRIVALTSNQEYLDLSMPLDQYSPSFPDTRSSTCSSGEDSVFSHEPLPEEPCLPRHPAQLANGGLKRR"}, "340 wild-type kinases [9]": {"target": "T9, 340 wild-type kinases (Homo sapiens, UniProt Q9H2X6)", "T9 construct": "purchased Reaction Biology Europe", "T9 sequence (Q9H2X6 whole entry)": "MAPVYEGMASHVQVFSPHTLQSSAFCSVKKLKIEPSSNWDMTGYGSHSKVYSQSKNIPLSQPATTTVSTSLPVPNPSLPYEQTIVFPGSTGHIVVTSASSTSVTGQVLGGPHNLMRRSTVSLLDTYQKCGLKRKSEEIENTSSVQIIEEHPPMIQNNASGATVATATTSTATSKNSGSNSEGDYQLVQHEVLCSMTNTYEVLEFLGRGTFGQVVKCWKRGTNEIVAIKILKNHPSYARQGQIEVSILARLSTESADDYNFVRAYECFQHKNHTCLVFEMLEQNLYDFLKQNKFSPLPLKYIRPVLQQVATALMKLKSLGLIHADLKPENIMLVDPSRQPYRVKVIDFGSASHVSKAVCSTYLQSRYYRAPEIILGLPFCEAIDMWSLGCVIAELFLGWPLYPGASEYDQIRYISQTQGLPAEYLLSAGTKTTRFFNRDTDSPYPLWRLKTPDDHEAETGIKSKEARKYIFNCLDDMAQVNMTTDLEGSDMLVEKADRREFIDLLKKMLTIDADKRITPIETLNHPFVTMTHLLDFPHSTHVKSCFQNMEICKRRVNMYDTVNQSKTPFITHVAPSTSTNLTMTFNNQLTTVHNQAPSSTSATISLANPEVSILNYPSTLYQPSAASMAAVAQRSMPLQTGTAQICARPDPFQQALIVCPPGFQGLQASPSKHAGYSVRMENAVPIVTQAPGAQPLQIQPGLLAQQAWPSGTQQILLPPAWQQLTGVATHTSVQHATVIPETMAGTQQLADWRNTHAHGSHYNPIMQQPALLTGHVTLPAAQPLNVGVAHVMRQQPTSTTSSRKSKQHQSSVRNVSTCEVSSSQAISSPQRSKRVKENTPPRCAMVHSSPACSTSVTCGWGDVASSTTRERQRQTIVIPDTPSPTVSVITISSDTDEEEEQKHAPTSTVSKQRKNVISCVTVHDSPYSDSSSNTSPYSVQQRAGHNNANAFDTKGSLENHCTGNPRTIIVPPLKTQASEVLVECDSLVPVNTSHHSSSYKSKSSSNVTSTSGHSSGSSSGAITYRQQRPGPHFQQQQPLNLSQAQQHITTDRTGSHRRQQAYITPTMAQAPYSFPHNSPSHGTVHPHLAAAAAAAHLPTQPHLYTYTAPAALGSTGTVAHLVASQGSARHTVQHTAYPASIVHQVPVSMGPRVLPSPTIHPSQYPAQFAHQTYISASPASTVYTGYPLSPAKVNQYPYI"}},
  "note": "Where two headings read alike, the source gives them in different places.",
  "data": [
    {"smiles": "CNC(=O)c1ccc2c(c1)C(=O)c1ccc(Nc3ccc(F)c(NC(=O)C4CC4)c3)cc1CC2", "note": "[Compound 2015]", "values": [
      {"measurement": "remaining activity at 0.2 µM", "setting": "340 wild-type kinases [1]; 0.2 µM 2015, read-out: ACVRL1 residual activity", "result": 100, "unit": "%"},
      {"measurement": "remaining activity at 1 µM", "setting": "340 wild-type kinases [1]; 1 µM 2015, read-out: ACVRL1 residual activity", "result": 102, "unit": "%"},
      {"measurement": "remaining activity at 0.2 µM", "setting": "340 wild-type kinases [1]; ACVRL1, 0.2 µM, read-out: residual activity", "result": 100, "unit": "%"},
      {"measurement": "remaining activity at 1 µM", "setting": "340 wild-type kinases [1]; ACVRL1, 1 µM, read-out: residual activity", "result": 102, "unit": "%"},
      {"measurement": "remaining activity at 0.2 µM", "setting": "340 wild-type kinases [2]; 0.2 µM 2015, read-out: STK33 residual activity", "result": 99.1, "unit": "%"},
      {"measurement": "remaining activity at 1 µM", "setting": "340 wild-type kinases [2]; 1 µM 2015, read-out: STK33 residual activity", "result": 96.3, "unit": "%"},
      {"measurement": "remaining activity at 0.2 µM", "setting": "340 wild-type kinases [2]; STK33, 0.2 µM, read-out: residual activity", "result": 99.1, "unit": "%"},
      {"measurement": "remaining activity at 1 µM", "setting": "340 wild-type kinases [2]; STK33, 1 µM, read-out: residual activity", "result": 96.3, "unit": "%"},
      {"measurement": "remaining activity at 0.2 µM", "setting": "340 wild-type kinases [3]; 0.2 µM 2015, read-out: ACVR2A residual activity", "result": 119, "unit": "%"},
      {"measurement": "remaining activity at 1 µM", "setting": "340 wild-type kinases [3]; 1 µM 2015, read-out: ACVR2A residual activity", "result": 104, "unit": "%"},
      {"measurement": "remaining activity at 0.2 µM", "setting": "340 wild-type kinases [3]; ACVR2A, 0.2 µM, read-out: residual activity", "result": 119, "unit": "%"},
      {"measurement": "remaining activity at 1 µM", "setting": "340 wild-type kinases [3]; ACVR2A, 1 µM, read-out: residual activity", "result": 104, "unit": "%"},
      {"measurement": "remaining activity at 0.2 µM", "setting": "340 wild-type kinases [4]; 0.2 µM 2015, read-out: MASTL residual activity", "result": 101, "unit": "%"},
      {"measurement": "remaining activity at 1 µM", "setting": "340 wild-type kinases [4]; 1 µM 2015, read-out: MASTL residual activity", "result": 93.3, "unit": "%"},
      {"measurement": "remaining activity at 0.2 µM", "setting": "340 wild-type kinases [4]; MASTL, 0.2 µM, read-out: residual activity", "result": 101, "unit": "%"},
      {"measurement": "remaining activity at 1 µM", "setting": "340 wild-type kinases [4]; MASTL, 1 µM, read-out: residual activity", "result": 93.3, "unit": "%"},
      {"measurement": "remaining activity at 0.2 µM", "setting": "340 wild-type kinases [5]; 0.2 µM 2015, read-out: MEKK3 residual activity", "result": 105, "unit": "%"},
      {"measurement": "remaining activity at 1 µM", "setting": "340 wild-type kinases [5]; 1 µM 2015, read-out: MEKK3 residual activity", "result": 101, "unit": "%"},
      {"measurement": "remaining activity at 0.2 µM", "setting": "340 wild-type kinases [5]; MEKK3, 0.2 µM, read-out: residual activity", "result": 105, "unit": "%"},
      {"measurement": "remaining activity at 1 µM", "setting": "340 wild-type kinases [5]; MEKK3, 1 µM, read-out: residual activity", "result": 101, "unit": "%"},
      {"measurement": "remaining activity at 0.2 µM", "setting": "340 wild-type kinases [6]; 0.2 µM 2015, read-out: SIK1 residual activity", "result": 90.9, "unit": "%"},
      {"measurement": "remaining activity at 1 µM", "setting": "340 wild-type kinases [6]; 1 µM 2015, read-out: SIK1 residual activity", "result": 85.5, "unit": "%"},
      {"measurement": "remaining activity at 0.2 µM", "setting": "340 wild-type kinases [6]; SIK1, 0.2 µM, read-out: residual activity", "result": 90.9, "unit": "%"},
      {"measurement": "remaining activity at 1 µM", "setting": "340 wild-type kinases [6]; SIK1, 1 µM, read-out: residual activity", "result": 85.5, "unit": "%"},
      {"measurement": "remaining activity at 0.2 µM", "setting": "340 wild-type kinases [7]; 0.2 µM 2015, read-out: TSSK1 residual activity", "result": 125, "unit": "%"},
      {"measurement": "remaining activity at 1 µM", "setting": "340 wild-type kinases [7]; 1 µM 2015, read-out: TSSK1 residual activity", "result": 106, "unit": "%"},
      {"measurement": "remaining activity at 0.2 µM", "setting": "340 wild-type kinases [7]; TSSK1, 0.2 µM, read-out: residual activity", "result": 125, "unit": "%"},
      {"measurement": "remaining activity at 1 µM", "setting": "340 wild-type kinases [7]; TSSK1, 1 µM, read-out: residual activity", "result": 106, "unit": "%"},
      {"measurement": "remaining activity at 0.2 µM", "setting": "340 wild-type kinases [8]; 0.2 µM 2015, read-out: FGFR1 residual activity", "result": 105, "unit": "%"},
      {"measurement": "remaining activity at 1 µM", "setting": "340 wild-type kinases [8]; 1 µM 2015, read-out: FGFR1 residual activity", "result": 111, "unit": "%"},
      {"measurement": "remaining activity at 0.2 µM", "setting": "340 wild-type kinases [8]; FGFR1, 0.2 µM, read-out: residual activity", "result": 105, "unit": "%"},
      {"measurement": "remaining activity at 1 µM", "setting": "340 wild-type kinases [8]; FGFR1, 1 µM, read-out: residual activity", "result": 111, "unit": "%"},
      {"measurement": "remaining activity at 0.2 µM", "setting": "340 wild-type kinases [9]; 0.2 µM 2015, read-out: HIPK2 residual activity", "result": 93.7, "unit": "%"},
      {"measurement": "remaining activity at 1 µM", "setting": "340 wild-type kinases [9]; 1 µM 2015, read-out: HIPK2 residual activity", "result": 97.9, "unit": "%"},
      {"measurement": "remaining activity at 0.2 µM", "setting": "340 wild-type kinases [9]; HIPK2, 0.2 µM, read-out: residual activity", "result": 93.7, "unit": "%"},
      {"measurement": "remaining activity at 1 µM", "setting": "340 wild-type kinases [9]; HIPK2, 1 µM, read-out: residual activity", "result": 97.9, "unit": "%"}
    ]}
  ]
}
